We go through eight molecules from US20240269298A1, “PHOSPHONYL DERIVATIVE, AND COMPOSITION AND PHARMACEUTICAL APPLICATION THEREOF” (XIZANG HAISCO PHARMACEUTICAL CO., LTD., priority 2021, published 2024).

Each structure is given as a SMILES string. Like-named read-outs stand apart in the source and are kept apart here.

The term AUC denotes concentration integrated over time. A low value points to less exposure. By half-life is commonly meant the time needed for the level to fall by half in the phase considered. Low readings indicate rapid decline, high ones slow decline. As usually defined, the IC50 is the point on the concentration scale where inhibition reaches its midpoint. As a reminder, the DC50 is the concentration giving 50% degradation. One may read the AUC(0-t) as the area under the concentration-time curve up to a stated or last time point. A lower AUC(0-t) goes with less exposure.

Data set [1] is described as follows: Pharmacokinetic test in mice. The data set is classed as in vivo. The note with it: male, ICR, mouse, po, administration i.g. (10 mg/kg), plasma. The essentials: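 Male ICR mice (20-25 g), fasted 12-14 h before dosing and fed 4 h after, received a single intravenous or intragastric dose. Orbital plasma sampled from 0 to 24 h (5 min-24 h points); LC-MS/MS quantitation for PK parameters and bioavailability.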

The subject of data set [2] is NCI-H1975 EGFR-L858R-T790M-C797S cells. Description: Inhibitory activity on proliferation of NCI-H1975 EGFR-L858R-T790M-C797S cells (CellTiter-Glo, 72 h). The note with it: Homo sapiens. Type of data set: cell-based. The essentials:
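Cells (1500/well) exposed to graded compound concentrations for 72 h at 37 °C in hygromycin-free RPMI1640 + 10% FBS, 0.1% DMSO vehicle. Viability by CellTiter-Glo luminescence relative to vehicle; IC50 from nonlinear sigmoidal dose-survival fit.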
Background: In ATP-based viability assays light output follows the ATP content of the culture.

Data set [3] addresses T1, EGFR protein in NCI-H1975 EGFR-L858R-T790M-C797S cells (Homo sapiens, UniProt P00533, C797S/L858R/T790M).
T1 construct: expressed in transfected cells; host or cells: NCI-H1975 EGFR-L858R-T790M-C797S (kept under hygromycin selection)
Description: Degradation activity on EGFR protein in NCI-H1975 EGFR-L858R-T790M-C797S cells, Method I (western blot, 72 h). Type of data set: cell-based. As to conditions: 72 h incubation, EGFR protein relative to DMSO control. The method, then:
Protein sample preparation: NCI-H1975 EGFR-L858R-T790M-C797S cells were cultured in an incubator at 37° C. with 5% CO2, and the culture medium was RPMI1640+10% FBS+100 μg/mL hygromycin. The cells in the logarithmic phase were collected, and the cell suspension was adjusted to an appropriate concentration with a hygromycin-free culture medium, plated on a 6-well plate at a density of 200000 cells/well and a volume of 2 mL, and cultured overnight in an incubator at 37° C. with 5% CO2. The next day, the compounds at different concentrations were added. DMSO control wells were provided, wherein the concentration of DMSO in all wells was 0.1%. The 6-well plate was cultured in an incubator at 37° C. with 5% CO2 for 72 h, and then 30 μL of RIPA lysates (Beyotime, Cat. P0013B) containing protease inhibitors (Beyotime, Cat. P0013B) were added. The mixtures were lysed on ice for 30 min. Centrifugation was carried out at 13000 rpm/min at 4° C. for 20 min to collect protein supernatant samples, and protein quantification was performed by the BCA method. Samples for western blot detection were prepared.
Western blot detection: 20 μg of protein samples were added to each well, subjected to polyacrylamide gel electrophoresis and transferred to a membrane, and then diluted anti-EGFR (CST, Cat. 4267S) and […] (Kangchen, Cat. KC-5G4) antibodies were added and incubated overnight at 4° C. After washing the membrane, diluted goat anti-rabbit (Licor, Cat. 926-32211) and goat anti-mouse (Licor, Cat. 926-68070) antibodies were added and incubated in the dark for 45 min. Scanning and detection at wavelengths of 700 nm and 800 nm were performed with a far-infrared imaging system (Odyssey).
According to formula (3), the expression level of EGFR protein in the cells relative to the DMSO control group was calculated after incubation with different concentrations of compounds. wherein EGFRcompound was the fluorescence value of EGFR protein after incubation with compounds, and EGFRvehicle was the fluorescence value of EGFR protein in the DMSO control group. Using the Origin 9.2 software, the drug concentration DC50 values when the expression level of EGFR protein was 50% relative to the DMSO control group were calculated.

Data set [4] deals with NCI-H1975 (EGFR-L858R-T790M) cells. In words: Inhibitory activity on proliferation of NCI-H1975 (EGFR-L858R-T790M) cells (CTG, 72 h). Type of data set: cell-based. The note with it: Homo sapiens. The method in brief:
(§1)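 Cells plated at 1000/well (NCI-H1975, RPMI1640+10% FBS) or 3000/well (A431, DMEM+10% FBS), dosed next day with compounds (0.1% DMSO final) for 72 h at 37 °C, 5% CO2. Viability by CTG luminescence, normalised to vehicle control; IC50 from nonlinear-regression dose-survival curves.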

The test system of another data set is A431 (EGFR-WT) cells. In words: Inhibitory activity on proliferation of A431 (EGFR-WT) cells (CTG, 72 h). Type of data set: cell-based. As to conditions: Homo sapiens, A-431. The essentials:
as §1

Where [5] appears, read: read-out: IC50 (value in brackets).

T1 sequence (P00533 25-1210 T790M/C797S/L858R): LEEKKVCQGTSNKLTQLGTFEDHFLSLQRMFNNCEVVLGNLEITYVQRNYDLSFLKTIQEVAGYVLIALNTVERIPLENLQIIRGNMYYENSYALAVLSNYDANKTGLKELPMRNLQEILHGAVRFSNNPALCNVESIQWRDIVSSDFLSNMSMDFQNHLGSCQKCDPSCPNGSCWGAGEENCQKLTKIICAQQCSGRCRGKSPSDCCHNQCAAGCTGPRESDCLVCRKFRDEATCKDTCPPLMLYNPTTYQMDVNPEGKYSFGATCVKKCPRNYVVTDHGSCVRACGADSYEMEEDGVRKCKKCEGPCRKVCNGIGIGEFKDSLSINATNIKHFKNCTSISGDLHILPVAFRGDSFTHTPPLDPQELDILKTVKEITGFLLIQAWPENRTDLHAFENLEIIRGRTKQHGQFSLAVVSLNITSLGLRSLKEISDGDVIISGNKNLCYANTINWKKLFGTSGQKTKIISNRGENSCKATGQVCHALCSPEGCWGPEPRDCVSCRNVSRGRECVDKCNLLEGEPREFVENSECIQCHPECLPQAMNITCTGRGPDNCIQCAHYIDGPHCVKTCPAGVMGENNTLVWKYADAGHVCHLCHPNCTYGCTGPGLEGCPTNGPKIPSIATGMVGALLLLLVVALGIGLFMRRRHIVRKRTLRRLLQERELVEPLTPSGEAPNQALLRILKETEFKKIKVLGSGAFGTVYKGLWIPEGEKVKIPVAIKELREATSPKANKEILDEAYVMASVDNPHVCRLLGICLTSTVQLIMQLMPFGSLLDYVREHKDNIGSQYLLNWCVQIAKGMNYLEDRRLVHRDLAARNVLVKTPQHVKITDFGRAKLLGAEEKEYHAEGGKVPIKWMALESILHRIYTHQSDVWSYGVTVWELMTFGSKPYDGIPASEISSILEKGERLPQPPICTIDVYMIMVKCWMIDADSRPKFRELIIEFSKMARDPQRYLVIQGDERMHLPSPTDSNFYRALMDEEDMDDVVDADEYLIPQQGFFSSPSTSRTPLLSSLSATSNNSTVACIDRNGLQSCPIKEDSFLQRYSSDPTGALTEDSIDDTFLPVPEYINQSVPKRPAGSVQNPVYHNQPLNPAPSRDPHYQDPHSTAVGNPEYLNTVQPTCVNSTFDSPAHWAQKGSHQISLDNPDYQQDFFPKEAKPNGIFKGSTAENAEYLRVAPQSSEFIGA

On to `COc1cc(N2CCN(CC3CCN(c4ccc5c(c4)C(=O)N(C4CCC(=O)NC4=O)C5=O)CC3)CC2)c(-c2cnn(C)c2)cc1Nc1ncc(Cl)c(Nc2ccc(-c3ccccc3)cc2P(C)(C)=O)n1` (stereo not drawn) [Compound 90, 5-(4-((4-(4-((5-chloro-4-((3-(dimethylphosphoryl)-[1,1′-biphenyl]-4-yl)amino)pyrimidin-2-yl)amino)-5-methoxy-2-(1-methyl-1H-pyrazol-4-yl)phenyl)piperazin-1-yl)methyl)piperidin-1-yl)-2-(2,6-dioxopiperidin-3-yl)isoindoline-1,3-dione], for which the AUC in data set [1] was determined as 35900 ng·h/mL. Besides, the half-life in data set [1] was 4.16 h. Moreover, the IC50 in data set [2] (read-out: IC50 (class symbol)) was under 200 nM; in data set [2] (read-out: IC50 (value)) it was 68 nM; in data set [4] (read-out: IC50 (class symbol)), under 100 nM; in data set [4] (setting [5]), 46 nM; in the data set on A431 (EGFR-WT) cells, at least 10000 nM. The molecule further gave a half-maximal degradation concentration (DC50) in data set [3] of under 100 nM.

On to `COc1cc(N2CCN(CC3CCN(c4ccc5c(c4)C(=O)N(C4CCC(=O)NC4=O)C5=O)CC3)CC2)c(-c2cnn(C)c2)cc1Nc1ncc(Br)c(Nc2ccc(-c3ccccc3F)cc2P(C)(C)=O)n1` (stereo not drawn) [Compound 96, 5-(4-((4-(4-((5-bromo-4-((3-(dimethylphosphoryl)-2′-fluoro-[1,1′-biphenyl]-4-yl)amino)pyrimidin-2-yl)amino)-5-methoxy-2-(1-methyl-1H-pyrazol-4-yl)phenyl)piperazin-1-yl)methyl)piperidin-1-yl)-2-(2,6-dioxopiperidin-3-yl)isoindoline-1,3-dione], for which the area under the curve AUC(0-t) in data set [1] turned out to be 47000 ng·h/mL. The half-maximal inhibitory concentration (IC50) was under 200 nM in data set [2] (read-out: IC50 (class symbol)); 60 nM in data set [2] (read-out: IC50 (value)); under 100 nM in data set [4] (read-out: IC50 (class symbol)); 36 nM in data set [4] (setting [5]); at least 10000 nM with A431 (EGFR-WT) cells. The DC50 in data set [3] is under 100 nM.

In turn, `COc1cc(N2CCN(CC3CCN(c4ccc5c(c4)C(=O)N(C4CCC(=O)NC4=O)C5=O)CC3)CC2)c(-c2cnn(C)c2)cc1Nc1ncc(Cl)c(Nc2ccc(-c3ccccc3F)cc2P(C)(C)=O)n1` (stereo not drawn) [Compound 97, 5-(4-((4-(4-((5-chloro-4-((3-(dimethylphosphoryl)-2′-fluoro-[1,1′-biphenyl]-4-yl)amino)pyrimidin-2-yl)amino)-5-methoxy-2-(1-methyl-1H-pyrazol-4-yl)phenyl)piperazin-1-yl)methyl)piperidin-1-yl)-2-(2,6-dioxopiperidin-3-yl)isoindoline-1,3-dione] came in with an AUC(0-t) in data set [1] of 42300 ng·h/mL. In addition, the concentration for half-maximal inhibition (IC50) in data set [2] (read-out: IC50 (class symbol)) was under 200 nM; in data set [2] (read-out: IC50 (value)), 79 nM; in data set [4] (read-out: IC50 (class symbol)) it was under 100 nM; in data set [4] (setting [5]) it was 62 nM; in the data set with A431 (EGFR-WT) cells, at least 10000 nM. The molecule also had a 50% degradation concentration (DC50) in data set [3] of under 100 nM.

Take `COc1cc(N2CCC(N3CCN(c4ccc5c(c4)C(=O)N(C4CCC(=O)NC4=O)C5=O)CC3)CC2)c(-c2cnn(C)c2)cc1Nc1ncc(Cl)c(Nc2ccc(-c3ccccc3)cc2P(C)(C)=O)n1` (stereo not drawn) [Compound 92, 5-(4-(1-(4-((5-chloro-4-((3-(dimethylphosphoryl)-[1,1′-biphenyl]-4-yl)amino)pyrimidin-2-yl)amino)-5-methoxy-2-(1-methyl-1H-pyrazol-4-yl)phenyl)piperidin-4-yl)piperazin-1-yl)-2-(2,6-dioxopiperidin-3-yl)isoindoline-1,3-dione]: in data set [1], the exposure (AUC) was determined as 63000 ng·h/mL. The molecule further showed a half-life in data set [1] of 6.88 h. The IC50 in data set [2] (read-out: IC50 (class symbol)) was under 200 nM; in data set [2] (read-out: IC50 (value)), 65 nM; in data set [4] (read-out: IC50 (class symbol)), under 100 nM; in data set [4] (setting [5]), 71 nM; with A431 (EGFR-WT) cells, at least 10000 nM. The molecule further returned a 50% degradation concentration (DC50) in data set [3] of under 100 nM.

For `COc1cc(N2CCN(CC3CCN(c4ccc5c(c4)C(=O)N(C4CCC(=O)NC4=O)C5=O)C3)CC2)c(-c2cnn(C)c2)cc1Nc1ncc(Cl)c(Nc2ccc(-c3ccccc3)cc2P(C)(C)=O)n1` (stereo not drawn) [Compound 68, 5-(3-((4-(4-((5-chloro-4-((3-(dimethylphosphoryl)-[1,1′-biphenyl]-4-yl)amino)pyrimidin-2-yl)amino)-5-methoxy-2-(1-methyl-1H-pyrazol-4-yl)phenyl)piperazin-1-yl)methyl)pyrrolidin-1-yl)-2-(2,6-dioxopiperidin-3-yl)isoindoline-1,3-dione], in data set [1], the area under the curve (AUC) was determined as 53200 ng·h/mL. The molecule further showed a half-life in data set [1] of 3.47 h. In addition, the IC50 was 200 to 500 nM in data set [2] (read-out: IC50 (class symbol)); 280 nM in data set [2] (read-out: IC50 (value)); under 100 nM in data set [4] (read-out: IC50 (class symbol)); 66 nM in data set [4] (setting [5]); at least 10000 nM in the data set with A431 (EGFR-WT) cells. In data set [3], this molecule showed a 50% degradation concentration (DC50) of under 100 nM.

The molecule `COc1cc(N2CCC(N3CCC4(CCN(c5ccc6c(c5)C(=O)N(C5CCC(=O)NC5=O)C6=O)CC4)CC3)CC2)c(-c2cnn(C)c2)cc1Nc1ncc(Br)c(Nc2ccc(-c3ccccc3)cc2P(C)(C)=O)n1` (stereo not drawn) [Compound 84, 5-(9-(1-(4-((5-bromo-4-((3-(dimethylphosphoryl)-[1,1′-biphenyl]-4-yl)amino)pyrimidin-2-yl)amino)-5-methoxy-2-(1-methyl-1H-pyrazol-4-yl)phenyl)piperidin-4-yl)-3,9-diazaspiro[5.5]undecan-3-yl)-2-(2,6-dioxopiperidin-3-yl)isoindoline-1,3-dione] registered an AUC(0-t) in data set [1] of 4570 ng·h/mL. Moreover, the IC50 in data set [2] (read-out: IC50 (class symbol)) was under 200 nM; in data set [2] (read-out: IC50 (value)) it was 47 nM; in data set [4] (read-out: IC50 (class symbol)) it was under 100 nM; in data set [4] (setting [5]) it was 43 nM; with A431 (EGFR-WT) cells, at least 10000 nM. In addition, in data set [3], the 50% degradation concentration (DC50) was under 100 nM.

`COc1cc(N2CCN(CC3CCN(c4ccc5c(c4)C(=O)N(C4CCC(=O)NC4=O)C5=O)CC3)CC2)c(-c2cnn(C)c2)cc1Nc1ncc(Br)c(Nc2ccc(-c3ccccc3)cc2P(C)(C)=O)n1` (stereo not drawn) [Compound 77, 5-(4-((4-(4-((5-bromo-4-((3-(dimethylphosphoryl)-[1,1′-biphenyl]-4-yl)amino)pyrimidin-2-yl)amino)-5-methoxy-2-(1-methyl-1H-pyrazol-4-yl)phenyl)piperazin-1-yl)methyl)piperidin-1-yl)-2-(2,6-dioxopiperidin-3-yl)isoindoline-1,3-dione] showed an AUC in data set [1] of 47300 ng·h/mL. In data set [1], this molecule showed a half-life of 5.79 h. Besides, the half-inhibitory concentration (IC50) was under 200 nM in data set [2] (read-out: IC50 (class symbol)); 46 nM in data set [2] (read-out: IC50 (value)); under 100 nM in data set [4] (read-out: IC50 (class symbol)); 32 nM in data set [4] (setting [5]); at least 10000 nM with A431 (EGFR-WT) cells. In data set [3], this molecule returned a DC50 of under 100 nM.

In turn, `COc1cc(N2CCN(C3CCN(c4ccc5c(c4)C(=O)N(C4CCC(=O)NC4=O)C5=O)CC3)CC2)c(-c2cnn(C)c2)cc1Nc1ncc(Br)c(Nc2ccc(-c3ccccc3)cc2P(C)(C)=O)n1` (stereo not drawn) [Compound 99, 5-(4-(4-(4-((5-bromo-4-((3-(dimethylphosphoryl)-[1,1′-biphenyl]-4-yl)amino)pyrimidin-2-yl)amino)-5-methoxy-2-(1-methyl-1H-pyrazol-4-yl)phenyl)piperazin-1-yl)piperidin-1-yl)-2-(2,6-dioxopiperidin-3-yl)isoindoline-1,3-dione] came in with an exposure AUC(0-t) in data set [1] of 25000 ng·h/mL. Further, the half-inhibitory concentration (IC50) in data set [2] (read-out: IC50 (class symbol)) was under 200 nM; in data set [2] (read-out: IC50 (value)), 57 nM; in data set [4] (read-out: IC50 (class symbol)) it was under 100 nM; in data set [4] (setting [5]), 33 nM; in the data set on A431 (EGFR-WT) cells it was at least 10000 nM. The same molecule showed a DC50 in data set [3] of under 100 nM.
